The source of these data is ChEMBL document CHEMBL2062501 (ACS Med Chem Lett, 2012).

Series [1] relates to marmosets. The series can be described thus: Antimigraine activity in marmosets assessed as inhibition of human alphaCGRP-induced increase in facial blood flow at 7 mg/kg, sc measured after 60 mins by laser Doppler flowmetry. Particulars: Callitrichinae sp., 1 h, route subcutaneous. The class given is functional.
Series [2] has as its system marmosets. Description: Antimigraine activity in marmosets assessed as inhibition of human alphaCGRP-induced increase in facial blood flow at 7 mg/kg, sc measured after 105 mins by laser Doppler flowmetry. The class given is functional. Particulars: Callitrichinae sp., 1.75 h, route subcutaneous.
In series [3] the target is T1, Calcitonin gene-related peptide type 1 receptor (Homo sapiens, UniProt O60894+Q16602). The series can be described thus: Displacement of [125I]-CGRP from CGRP receptor in human SK-N-MC cells. The class given is cell-based. (Displacement assays read how much labelled ligand stays bound in the presence of the test substance.)
Series [4] has as its target T1, Calcitonin gene-related peptide type 1 receptor. The series can be described thus: Antagonist activity at CGRP receptor in human SK-N-MC cells assessed as inhibition of CGRP-stimulated cAMP production. The class given is functional, cell-based. (Cyclic AMP is a second messenger, typically raised through Gs and lowered through Gi signalling.)
Series [5] in a line: Permeability of the compound at pH 5.5 by PAMPA. The class given is ADME. Particulars: read-out: permeability. (In PAMPA a lipid-coated filter parts donor from acceptor wells.)
Series [6] is described as follows: Permeability of the compound at pH 7.4 by PAMPA. The class given is ADME. Particulars: read-out: permeability.
Series [7] can be described thus: Oral bioavailability in rat at 10 mg/kg. Particulars: in vivo. The class given is ADME, organism-based.
A short description of series [8]: Oral bioavailability in dog at 10 mg/kg. The class given is ADME, organism-based, Canis lupus familiaris. Particulars: in vivo.
Series [9] can be described thus: Oral bioavailability in cynomolgus monkey at 10 mg/kg. The class given is ADME, organism-based, Macaca fascicularis. Particulars: in vivo.
A short description of series [10]: Metabolic stability of the compound in human liver microsomes assessed as compound remaining at 0.5 uM after 10 mins. The class given is ADME, Microsome. Particulars: read-out: Stability.
A short description of series [11]: Half life in human liver microsomes at 0.5 uM. The class given is ADME, Microsome.
Series [12] can be described thus: Plasma concentration on marmosets at 7 mg/kg, sc measured after 60 mins. The class given is ADME, organism-based. Also on record: dose 7 mg/kg, route subcutaneous. Particulars: callitrichinae sp.
Series [13] in a line: Plasma concentration on marmosets at 7 mg/kg, sc measured after 105 mins. The class given is ADME, organism-based. The arrangement: dose 7 mg/kg, route subcutaneous. Particulars: callitrichinae sp.
Series [14] has as its system marmosets. Description: Antimigraine activity in marmosets assessed as inhibition of alphaCGRP-induced increase in facial blood flow at 10 mg/kg, po by laser Doppler flowmetry. Particulars: Callitrichinae sp., in Callithrix jacchus. The class given is functional.

pIC50, pKi: −log10 of the molar value. Where only a bound is given, the exact number is not on record here.

T1 sequence (Q16602 whole entry, one chain of several): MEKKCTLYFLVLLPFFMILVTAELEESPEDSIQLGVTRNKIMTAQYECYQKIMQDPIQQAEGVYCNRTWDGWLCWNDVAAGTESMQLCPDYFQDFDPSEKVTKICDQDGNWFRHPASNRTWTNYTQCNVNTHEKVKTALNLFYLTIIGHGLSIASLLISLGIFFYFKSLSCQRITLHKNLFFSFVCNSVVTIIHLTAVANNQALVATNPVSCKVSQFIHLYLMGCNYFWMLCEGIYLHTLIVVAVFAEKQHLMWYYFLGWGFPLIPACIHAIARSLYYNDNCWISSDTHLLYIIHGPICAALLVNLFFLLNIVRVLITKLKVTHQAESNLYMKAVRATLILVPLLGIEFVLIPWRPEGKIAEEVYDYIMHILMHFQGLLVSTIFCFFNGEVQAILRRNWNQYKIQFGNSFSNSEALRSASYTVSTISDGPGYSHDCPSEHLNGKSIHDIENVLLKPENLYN

Broadly, the inhibition in vivo is how much of the control response was suppressed. As usually defined, the pKi is −log10 of the Ki, conventionally taken in molar units. In general, pIC50 refers to the IC50 on a negative log10 scale, so that one unit is a factor of ten. As a reminder, the bioavailability is dose-corrected exposure relative to a reference, in per cent. What is called half-life is the time in which the quantity being followed falls by half. Regarding `O=C(O[C@@H]1CC[C@@H](c2cccc(F)c2F)Cc2cccnc21)N1CCC(n2c(=O)[nH]c3ncccc32)CC1`, the inhibition in vivo at 7 mg/kg with marmosets [1] and with marmosets [2] was 52% throughout. In addition, the pKi in series [3] was 10.15. Besides, the pIC50 in series [4] is 9.66. For the same molecule, the Papp in series [5] is 150 ×10⁻⁶ cm/s; in series [6], 88 ×10⁻⁶ cm/s. Also, the bioavailability is 29% in series [7], 34% in series [8] and 38% in [9]. Besides, the remaining at 10 min, 0.5 µM in series [10] worked out at 74%. The same molecule yielded a half-life at 0.5 µM in [11] of 24 min. In addition, the concentration at 1 h in [12] is above 1000 nM. In series [13], this molecule displayed a concentration at 1.75 h above 1500 nM.

In the case of `O=C(O[C@H]1CC[C@H](c2cccc(F)c2F)Cc2cccnc21)N1CCC(n2c(=O)[nH]c3ncccc32)CC1`, the pKi in series [3] is 6.03.

Regarding `Cc1cc(CC(OC(=O)N2CCC(n3c(=O)[nH]c4ncccc43)CC2)c2cc(C(=O)N(C)C)cc(Cl)n2)cc2cn[nH]c12` (racemic), in the series on marmosets [14], the inhibition in vivo at 10 mg/kg turned out to be 31%. Moreover, the pKi in [3] was 10.15.
